Experiments:
cPLA2α = target: T1, cPLA2α (Homo sapiens, UniProt P47712); assay: GLU Micelle Assay; assay type: biochemical
T1 sequence (P47712 1-749): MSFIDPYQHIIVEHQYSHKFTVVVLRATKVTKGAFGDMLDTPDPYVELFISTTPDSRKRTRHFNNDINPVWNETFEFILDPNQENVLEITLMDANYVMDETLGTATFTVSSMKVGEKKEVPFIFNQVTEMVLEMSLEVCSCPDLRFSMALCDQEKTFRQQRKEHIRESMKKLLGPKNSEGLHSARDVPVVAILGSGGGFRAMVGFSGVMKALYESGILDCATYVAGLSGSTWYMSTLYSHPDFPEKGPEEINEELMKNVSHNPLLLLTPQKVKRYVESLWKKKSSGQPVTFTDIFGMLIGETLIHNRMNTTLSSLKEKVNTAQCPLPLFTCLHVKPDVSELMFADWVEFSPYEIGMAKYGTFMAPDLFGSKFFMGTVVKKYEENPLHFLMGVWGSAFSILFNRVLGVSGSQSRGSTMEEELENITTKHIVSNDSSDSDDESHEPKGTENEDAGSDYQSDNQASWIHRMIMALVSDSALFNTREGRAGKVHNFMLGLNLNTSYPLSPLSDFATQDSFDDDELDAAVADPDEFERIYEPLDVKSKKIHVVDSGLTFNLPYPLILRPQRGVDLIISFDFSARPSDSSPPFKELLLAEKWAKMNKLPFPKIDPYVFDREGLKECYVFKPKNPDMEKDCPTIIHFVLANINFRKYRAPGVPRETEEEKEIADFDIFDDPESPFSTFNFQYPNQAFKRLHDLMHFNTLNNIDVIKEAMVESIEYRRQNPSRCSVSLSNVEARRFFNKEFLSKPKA
Procedure: The assay was carried in a 96-well format using a fluorescent plate reader with a 355 nm excitation filter and a 460 nm emission filter (Lab Systems Fluoroscan II, Helsinki, Finland). The assay buffer contained 940 μM Triton X-100, 50 mM Hepes pH 7.4, 0.3 mM EDTA, 1 mM CaCl2 and 300 mM KCl. DTPC (1,2-O-tetradecyl-sn-glycero-3-phosphocholine, Avanti) at a final concentration of 120 μM was added the day of the experiment and GLU (7-Hydroxycoumarinyl-γ-linolenate, Biomol Research Lab, Inc.) at a final concentration of 90 μM was added immediately prior to each assay.
Compounds (10 μL) dissolved in DMSO were placed in duplicate wells of a black 96-well plate. Wells corresponding to the positive and negative controls contained DMSO without inhibitors. Just prior to the experiment, 200 μL assay buffer containing 90 μM GLU and 120 μM DTPC was added to all wells in the assay plate. Assay buffer (50 μL) was added to the negative, and 50 μL cPLA2α solution ([…] in assay buffer) was added to all other wells to initiate the reaction. The final concentration of enzyme was 1 μg/ml. The content of each well was mixed gently during the addition of the enzyme, and the plate was rapidly transferred to the fluorescent plate reader. The increase in fluorescence was read every 4 min for 84 min. The slope of the resulting line was determined and the inhibition was calculated using the equation below: Percent Inhibition=[1−(slope with inhibitor−slope negative control)/(slope positive control−slope negative control)]×100 Rat Whole Blood Assay

TXB2 = assay: Rat Whole Blood Assay (A23187-stimulated TXB2); assay type: cell-based; conditions: A23187 5 μM
Procedure: Fresh blood was collected in heparinized tubes by cardiac puncture of male Sprague-Dawley rats. Aliquots of blood (0.6 mL) were incubated with either 6 μL solvent (DMSO), or 6 μL of test compounds at various concentrations for 15 minutes at 37° C. This was followed by incubation of the blood with 6 μL of calcium ionophore, A23187 (Sigma C-7522) diluted in DMSO for 10 min at 37° C. The final concentration of A23187 was 5 μM. DMSO (6 μL) was added in the unstimulated controls. The reactions were stopped by mixing 60 μL cold EDTA to give a final concentration of 20 mM. The blood was centrifuged at 6,500 rpm for 10 min on a microcentrifuge to obtain plasma. A 70 μL aliquot of plasma was mixed with 400 μL cold methanol for protein precipitation. After incubation at −80° C. for 30 min, the supernatant was obtained by centrifuging at 6,500 rpm for 10 min, and was assayed for TXB2 according to the manufacturer's procedure (Assay Designs, Inc.'s ELISA kit #900-002).

Structure (SMILES)	IC50 (cPLA2α)	IC50 (TXB2; Rattus norvegicus)	IC50 (TXB2)
CCN(CC)Cc1ccccc1CS(=O)(=O)NCCc1c(CCCc2ccc(C(=O)O)cc2)c2cc(Cl)ccc2n1C(c1ccccc1)c1ccccc1 [Example 18, 4-{3-[5-chloro-2-{2-[({2-[(diethylamino)methyl]benzyl}sulfonyl)amino]ethyl}-1-(diphenylmethyl)-1H-indol-3-yl]propyl}benzoic acid]	25 nM	40 nM	–
O=C(O)c1ccc(CCCc2c(CCNS(=O)(=O)Cc3ccccc3-c3ccccc3)n(C(c3ccccc3)c3ccccc3)c3ccc(Cl)cc23)cc1 [Example 29, 4-{3-[2-(2-{[(biphenyl-2-ylmethyl)sulfonyl]amino}ethyl)-5-chloro-1-(diphenylmethyl)-1H-indol-3-yl]propyl}benzoic acid]	18 nM	50 nM	–
O=C(O)c1ccc(CCCc2c(CCNS(=O)(=O)Cc3c(Br)cccc3Br)n(C(c3ccccc3)c3ccccc3)c3ccc(Cl)cc23)cc1 [Example 7, 4-{3-[5-chloro-2-(2-{[(2,6-dibromobenzyl)sulfonyl]amino}ethyl)-1-(diphenylmethyl)-1H-indol-3-yl]propyl}benzoic acid]	18 nM	30 nM	–
O=C(O)c1ccc(CCCc2c(CCNS(=O)(=O)Cc3ccccc3Br)n(C(c3ccccc3)c3ccccc3)c3ccc(Cl)cc23)cc1 [Example 24, 4-{3-[2-(2-{[(2-bromobenzyl)sulfonyl]amino}ethyl)-5-chloro-1-(diphenylmethyl)-1H-indol-3-yl]propyl}benzoic acid]	8 nM	30 nM	–
O=C(O)c1ccc(CCCc2c(CCNS(=O)(=O)Cc3ccccc3-c3ccsc3)n(C(c3ccccc3)c3ccccc3)c3ccc(Cl)cc23)cc1 [Example 32, 4-(3-{5-chloro-1-(diphenylmethyl)-2-[2-({[2-(3-thienyl)benzyl]sulfonyl}amino)ethyl]-1H-indol-3-yl}propyl)benzoic acid]	13 nM	50 nM	–
O=C(O)c1ccc(OCCc2c(CCNS(=O)(=O)Cc3c(F)cccc3C(F)(F)F)n(C(c3ccccc3)c3ccccc3)c3ccc(Cl)cc23)cc1 [Example 6, 4-(2-{5-chloro-1-(diphenylmethyl)-2-[2-({[2-fluoro-6-(trifluoromethyl)benzyl]sulfonyl}amino)ethyl]-1H-indol-3-yl}ethoxy)benzoic acid]	92 nM	80 nM	–
Cc1c(Cl)ccc(F)c1CS(=O)(=O)NCCc1c(CCCc2ccc(C(=O)O)cc2)c2cc(Cl)ccc2n1C(c1ccccc1)c1ccccc1 [Example 26]	22 nM	–	30 nM
Cc1cccc([N+](=O)[O-])c1CS(=O)(=O)NCCc1c(CCCc2ccc(C(=O)O)cc2)c2cc(Cl)ccc2n1C(c1ccccc1)c1ccccc1 [Example 9]	22 nM	–	20 nM
O=C(O)c1ccc(OCCc2c(CCNS(=O)(=O)Cc3ccccc3OCc3ccccc3)n(C(c3ccccc3)c3ccccc3)c3ccc(Cl)cc23)cc1 [Example 1, 4-{2-[2-[2-({[2-(benzyloxy)benzyl]sulfonyl}amino)ethyl]-5-chloro-1-(diphenylmethyl)-1H-indol-3-yl]ethoxy}benzoic acid]	260 nM	140 nM	–
N#Cc1ccccc1-c1ccccc1CS(=O)(=O)NCCc1c(CCCc2ccc(C(=O)O)cc2)c2cc(Cl)ccc2n1C(c1ccccc1)c1ccccc1 [Example 37, 4-{3-[5-chloro-2-[2-({[(2′-cyanobiphenyl-2-yl)methyl]sulfonyl}amino)ethyl]-1-(diphenylmethyl)-1H-indol-3-yl]propyl}benzoic acid]	25 nM	30 nM	–
CN(CCc1c(CCCc2ccc(C(=O)O)cc2)c2cc(Cl)ccc2n1C(c1ccccc1)c1ccccc1)S(=O)(=O)Cc1ccccc1C(F)(F)F [Example 11, 4-(3-{5-chloro-1-(diphenylmethyl)-2-[2-(methyl{[2-(trifluoromethyl)benzyl]sulfonyl}amino)ethyl]-1H-indol-3-yl}propyl)benzoic acid]	280 nM	380 nM	–

Further molecules by falling IC50 (cPLA2α), results first:

IC50 (cPLA2α)	IC50 (TXB2; Rattus norvegicus)	Structure (SMILES)	IC50 (TXB2)
72 nM	60 nM	O=C(O)c1ccc(CCCc2c(CCNS(=O)(=O)Cc3ccccc3O)n(C(c3ccccc3)c3ccccc3)c3ccc(Cl)cc23)cc1 [Example 40, 4-{3-[5-chloro-1-(diphenylmethyl)-2-(2-{[(2-hydroxybenzyl)sulfonyl]amino}ethyl)-1H-indol-3-yl]propyl}benzoic acid]	–
54 nM	60 nM	O=C(O)c1ccc(OCCc2c(CCNS(=O)(=O)Cc3c(Br)cccc3Br)n(C(c3ccccc3)c3ccccc3)c3ccc(Cl)cc23)cc1 [Example 3, 4-{2-[5-chloro-2-(2-{[(2,6-dibromobenzyl)sulfonyl]amino}ethyl)-1-(diphenylmethyl)-1H-indol-3-yl]ethoxy}benzoic acid]	–
38 nM	30 nM	O=C(O)c1ccc(CCCc2c(CCNS(=O)(=O)Cc3c([N+](=O)[O-])cccc3C(F)(F)F)n(C(c3ccccc3)c3ccccc3)c3ccc(Cl)cc23)cc1 [Example 27, 4-(3-{5-chloro-1-(diphenylmethyl)-2-[2-({[2-nitro-6-(trifluoromethyl)benzyl]sulfonyl}amino)ethyl]-1H-indol-3-yl}propyl)benzoic acid]	–
30 nM	30 nM	O=C(O)c1ccc(CCCc2c(CCNS(=O)(=O)Cc3ccccc3F)n(C(c3ccccc3)c3ccccc3)c3ccc(Cl)cc23)cc1 [Example 28, 4-{3-[5-chloro-1-(diphenylmethyl)-2-(2-{[(2-fluorobenzyl)sulfonyl]amino}ethyl)-1H-indol-3-yl]propyl}benzoic acid]	–
27 nM	50 nM	CN(C)c1ccc(-c2ccccc2CS(=O)(=O)NCCc2c(CCCc3ccc(C(=O)O)cc3)c3cc(Cl)ccc3n2C(c2ccccc2)c2ccccc2)cc1 [Example 35, 4-{3-[5-chloro-2-{2-[({[4′-(dimethylamino)biphenyl-2-yl]methyl}sulfonyl)amino]ethyl}-1-(diphenylmethyl)-1H-indol-3-yl]propyl}benzoic acid]	–
23 nM	50 nM	O=Cc1ccccc1CS(=O)(=O)NCCc1c(CCCc2ccc(C(=O)O)cc2)c2cc(Cl)ccc2n1C(c1ccccc1)c1ccccc1 [Example 16, 4-{3-[5-chloro-1-(diphenylmethyl)-2-(2-{[(2-formylbenzyl)sulfonyl]amino}ethyl)-1H-indol-3-yl]propyl}benzoic acid]	–
22 nM	20 nM	Cc1noc(C)c1-c1ccccc1CS(=O)(=O)NCCc1c(CCCc2ccc(C(=O)O)cc2)c2cc(Cl)ccc2n1C(c1ccccc1)c1ccccc1 [Example 33, 4-{3-[5-chloro-2-[2-({[2-(3,5-dimethylisoxazol-4-yl)benzyl]sulfonyl}amino)ethyl]-1-(diphenylmethyl)-1H-indol-3-yl]propyl}benzoic acid]	–
21 nM	40 nM	O=C(O)c1ccc(CCCc2c(CCNS(=O)(=O)Cc3c(C(F)(F)F)cccc3C(F)(F)F)n(C(c3ccccc3)c3ccccc3)c3ccc(Cl)cc23)cc1 [Example 12, 4-{3-[2-[2-({[2,6-bis(trifluoromethyl)benzyl]sulfonyl}amino)ethyl]-5-chloro-1-(diphenylmethyl)-1H-indol-3-yl]propyl}benzoic acid]	–
